Data on 23 compounds can be found in patent US20230111310A1, “CARBOXYLIC ACID DERIVATIVE-SUBSTITUTED IMINO ARYL COMPOUND, PREPARATION METHOD THEREFOR, HERBICIDAL COMPOSITION AND USE THEREOF” (Qingdao Kingagroot Chemical Compound Co., Ltd., priority 2020, published 2023).

Where two headings read alike, the source gives them in different places.

Assay in all cases: Composition activity test, post-emergence foliage spray
Format in all cases: in vivo

The test system of assay [1] is Lithospermum arvense. Here is the method:
(§1) are as follows, and the others were purchased from reagent companies. The technical materials were all dissolved in acetone and diluted with an aqueous solution containing 0.1% emulsifier Tween-80. The dilution is performed as required.
(§2) Weeds were cultivated by a pot culture method. […] Full and uniform weed seeds were selected, soaked in warm water at 25° C. for 6 hours, and germinated in a 28° C. biochemical incubator (darkness). The weed seeds that had just germinated were evenly placed on the surface of the soil and then covered with 0.5-1 cm soil according to the sizes of seeds.
(§3) The culture was carried out in a controllable sunlight greenhouse at 20 to 30° C., in natural light, and relative humidity of 57% to 72%.
(§4) 3 pots with 20 weed seeds per pot were treated in one treatment with 4 replications per treatment.
(§5) The agents were used for only once in the experiment. In the stage of weeds with 1.5-2 leaves, the weeds were thinned out to maintain 10 weeds per pot and 30 weeds for each treatment, then continued to be cultured to Conyza Canadensis 10 cm in height, other weeds 3-4 leaves stage and treated.
(§6) The well-cultured weeds were evenly placed on a platform with an area of 0.5 m^2, and a solution of agents was sprayed on the stems and leaves thereof by the 3WP-2000-type walking spray tower at a dosage of 450 kg/ha and at a spray pressure of 0.3 MPa. After all the solution was sprayed, the valve was closed. After 30 seconds, the door of the spray tower was opened, and the nutritional bowl was taken out. Then the valve was opened, and the spray tube was cleaned by spraying 50 ml of water. After the treatment, the weeds were routinely cultured in a greenhouse.
(§7) A method for investigating absolute number was employed, wherein whole seedlings of survival weeds were cut off with a blade along the soil surface, and the fresh weight of the weeds was weighed with an analytical balance. For dead weeds, the fresh weight thereof was zero.
(§8) The investigation was performed after 21 days of the treatment for only once.
(§9) An optimum ratio of the two active ingredients was determined by the actual control effect, characteristics of herbicides, and balance of a corresponding formula. Wherein, in the formula, X represented the fresh weight inhibition rate of the active ingredient A in a dosage of P, and Y represented the fresh weight inhibition rate of the active ingredient B in a dosage of Q. The statistical results were shown in the table 6.

Assay [2] concerns Veronica didyma Tenore. As to conditions: for pest or weed control at 90 g/ha: B 90 g a.i./ha. The method, then:
as §1, §2, §3, §4, §5, §6, §7, §8, §9

Assay [3] has as its system Malachium aquaticum. Here is the method:
as §1, §2, §3, §4, §5, §6, §7, §8, §9

Where [4] appears, read: Veronica polita, foliar, Veronica didyma Tenore, foliage, read-out: Control effect (%) of B applied alone (B).

In the case of `C#CCN1C(=O)COc2cc(F)c(N3C(=O)C4=C(CCCC4)C3=O)cc21` [flumioxazin], the “Control effect (%) of B applied alone (B)” value (“Control effect (%)” below) in assay [1] (B 7.5 g a.i./ha) is 29.4%.

On to `C#CCN1C(=O)C(F)(F)Oc2cc(F)c(-n3c(=O)n(C)c(=S)n(C)c3=O)cc21` [trifludimoxazin], for which the “Control effect (%)” value in assay [1] (B 4.5 g a.i./ha) amounted to 31.8%.

Consider `CCOC(=O)C(Cl)Cc1cc(-n2nc(C)n(C(F)F)c2=O)c(F)cc1Cl` (centres unmarked) [carfentrazone-ethyl], for which the “Control effect (%)” value in assay [1] (B 4.5 g a.i./ha) amounted to 27.2%.

Consider `COc1c(Cl)ccc(Cl)c1C(=O)O` [dicamba], for which the pest or weed control at 150 g/ha in assay [2] (Veronica polita, foliar, Veronica didyma Tenore, foliage, B 150 g a.i./ha, read-out: Control effect (%) of B applied alone (B)) was 29.7%.

Turning to `CCOc1cc(Oc2ccc(C(F)(F)F)cc2Cl)ccc1[N+](=O)[O-]` [oxyfluorfen], in assay [1] (B 60 g a.i./ha), the “Control effect (%)” value is 31.5%.

For `COc1cc(OC)nc(NC(=O)NS(=O)(=O)c2ncccc2C(=O)N(C)C)n1` [nicosulfuron], the “Control effect (%)” value in assay [3] (B 3 g a.i./ha) was 31.4%.

In the case of `CCS(=O)(=O)c1cccnc1S(=O)(=O)NC(=O)Nc1nc(OC)cc(OC)n1` [rimsulfuron], the “Control effect (%)” value in assay [3] (B 1.5 g a.i./ha) is 26.2%.

As to oxadiargyl, the “Control effect (%)” value in assay [1] (B 30 g a.i./ha) came out at 38.7%.

For `COC(=O)c1sccc1S(=O)(=O)NC(=O)Nc1nc(C)nc(OC)n1` [thifensulfuron methyl], the “Control effect (%)” value in assay [3] (B 4.5 g a.i./ha) came to 30.8%.

For `C#CCN(C)c1c(C#N)cnn1-c1nn2c(c1Cl)CCCC2` [pyraclonil], the “Control effect (%)” value in assay [1] (B 75 g a.i./ha) turned out to be 37.9%.

Consider `O=C(O)COc1nc(Cl)c(Cl)cc1Cl` [triclopyr], for which the pest or weed control at 90 g/ha in assay [2] (setting [4]) came to 34.2%.

Turning to `COC(=O)c1c(Cl)nn(C)c1S(=O)(=O)NC(=O)Nc1nc(OC)cc(OC)n1` [halosulfuron methyl], in assay [3] (B 9 g a.i./ha), the “Control effect (%)” value amounted to 36.4%.

As for `Nc1c(Cl)c(F)nc(OCC(=O)O)c1Cl` [fluroxypyr], the pest or weed control at 60 g/ha in assay [2] (Veronica polita, foliar, Veronica didyma Tenore, foliage, B 60 g a.i./ha, read-out: Control effect (%) of B applied alone (B)) was found to be 39.3%.

Turning to `COCc1cnc(C2=NC(C)(C(C)C)C(=O)N2)c(C(=O)O)c1` (centres unmarked) [imazamox], the “Control effect (%)” value in assay [3] (B 15 g a.i./ha) turned out to be 27.2%.

With `C[C@@H](Oc1nc(F)c(Cl)c(N)c1Cl)C(=O)OCC1CCCO1` (some centres unmarked) [Cpd B2], the pest or weed control at 90 g/ha in assay [2] (setting [4]) is 42.1%.

Turning to `Nc1c(Cl)c(Cl)nc(C(=O)O)c1Cl` [picloram], the pest or weed control at 300 g/ha in assay [2] (Veronica polita, foliar, Veronica didyma Tenore, foliage, B 300 g a.i./ha, read-out: Control effect (%) of B applied alone (B)) amounted to 43.6%.

`CC(C)N(C)S(=O)(=O)NC(=O)c1cc(-n2c(=O)cc(C(F)(F)F)n(C)c2=O)c(F)cc1Cl` [saflufenacil]: the “Control effect (%)” value in assay [1] (B 0.75 g a.i./ha) was determined as 39.7%.

As for `Cc1nn(-c2cc(NS(C)(=O)=O)c(Cl)cc2Cl)c(=O)n1C(F)F` [sulfentrazone], the “Control effect (%)” value in assay [1] (B 90 g a.i./ha) turned out to be 26.5%.

Consider `Nc1cc(Cl)nc(C(=O)O)c1Cl` [aminopyralid], for which the “Control effect (%)” value in assay [2] (Veronica didyma Tenore, foliage, B 30 g a.i./ha) is on record as 32.2%.

Regarding `CC(C)Oc1cc(-n2nc(C(C)(C)C)oc2=O)c(Cl)cc1Cl` [oxadiazon], the “Control effect (%)” value in assay [1] (B 90 g a.i./ha) was 24.3%.

As to `COC(=O)c1ccccc1S(=O)(=O)NC(=O)N(C)c1nc(C)nc(OC)n1` [tribenuron-methyl], in assay [3] (B 3 g a.i./ha), the “Control effect (%)” value is 27.9%.

On to `COC(=O)c1csc(C)c1S(=O)(=O)NC(=O)n1nc(OC)n(C)c1=O` [thiencarbazone-methyl], for which the “Control effect (%)” value in assay [3] (B 3 g a.i./ha) worked out at 41.1%.

As to `Cc1cc(Cl)ccc1OCC(=O)O` [2-methyl-4-chlorophenoxy acetic acid, 2-methyl-4-chlorophenoxyacetic acid], the pest or weed control at 150 g/ha in assay [2] (Veronica polita, foliar, read-out: Control effect (%) of B applied alone (B)) was found to be 39.3%.
